Measurements as given in publication PMC9317966, “Structure-function analysis of the AMPK activator SC4 and identification of a potent pan AMPK activator” (Biochemical Journal, 2022).

Experiments:
Test in all cases: Radiolabel SAMS kinase assay, GST-AMPK from HEK293T/17 cells immobilised on glutathione-Sepharose
Type in all cases: biochemical
Settings in all cases: 1 µM compound
human GST-AMPK α1β2γ1 = target: T1, human GST-AMPK α1β2γ1 (Homo sapiens, UniProt O43741+Q13131)
T1 construct: triply transfected with full-length AMPK α1 or α2 (NH2-terminal GST fusion, pDEST27 vector); full-length AMPK α1 or α2 (NH2-terminal GST fusion, pDEST27 vector), β1 or β2 (COOH-terminal FLAG fusion, pcDNA3.1 vector); FLAG (C); made in house; host or cells: HEK293T/17 cells, transient triple transfection
T1 sequence (Q13131 whole entry, the tested form may be a part): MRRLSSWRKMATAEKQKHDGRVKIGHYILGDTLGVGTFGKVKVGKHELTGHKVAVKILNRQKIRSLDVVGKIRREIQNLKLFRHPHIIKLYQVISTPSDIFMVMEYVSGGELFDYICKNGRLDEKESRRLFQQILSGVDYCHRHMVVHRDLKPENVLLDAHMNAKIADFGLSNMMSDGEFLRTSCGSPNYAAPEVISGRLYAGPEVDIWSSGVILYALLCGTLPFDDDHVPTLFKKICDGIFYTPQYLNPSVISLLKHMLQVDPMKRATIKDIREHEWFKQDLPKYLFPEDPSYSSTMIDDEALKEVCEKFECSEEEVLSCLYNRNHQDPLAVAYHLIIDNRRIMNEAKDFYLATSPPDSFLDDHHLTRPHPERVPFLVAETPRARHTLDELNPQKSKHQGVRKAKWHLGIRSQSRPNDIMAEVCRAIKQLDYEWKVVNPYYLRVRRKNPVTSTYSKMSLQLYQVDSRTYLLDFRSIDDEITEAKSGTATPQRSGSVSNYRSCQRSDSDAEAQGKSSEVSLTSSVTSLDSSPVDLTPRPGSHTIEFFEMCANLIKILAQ
T1 sequence (O43741 whole entry, the tested form may be a part): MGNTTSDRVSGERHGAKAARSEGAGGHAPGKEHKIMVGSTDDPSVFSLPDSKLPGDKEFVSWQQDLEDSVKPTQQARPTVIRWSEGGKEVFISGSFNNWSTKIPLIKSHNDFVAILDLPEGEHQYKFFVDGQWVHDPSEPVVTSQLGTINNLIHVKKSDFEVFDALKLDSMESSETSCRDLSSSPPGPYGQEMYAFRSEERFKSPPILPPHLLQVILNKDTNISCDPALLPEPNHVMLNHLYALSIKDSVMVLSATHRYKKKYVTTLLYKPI
T1 sequence (P54619 whole entry partner, the tested form may be a part): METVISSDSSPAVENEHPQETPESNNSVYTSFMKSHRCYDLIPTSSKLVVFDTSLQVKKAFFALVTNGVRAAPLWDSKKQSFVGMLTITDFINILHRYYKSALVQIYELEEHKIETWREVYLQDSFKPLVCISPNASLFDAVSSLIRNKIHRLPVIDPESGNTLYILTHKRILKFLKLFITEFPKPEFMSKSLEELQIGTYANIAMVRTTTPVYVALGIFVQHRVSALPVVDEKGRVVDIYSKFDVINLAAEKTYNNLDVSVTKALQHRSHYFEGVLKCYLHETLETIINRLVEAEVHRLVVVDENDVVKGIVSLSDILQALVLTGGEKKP
Text: (§1) We generated a series of compounds to investigate whether modification of the SC4 2-hydroxybiphenyl LHS fragment affects isoform selectivity, some of which (MSG008-MSG011) are presented in Table 1. We also synthesised compound MSG012 (example I-3-54 [32]), which was reported to activate α2β2γ1 with ∼100-fold greater potency compared with α1β1γ1. MSG012 differs from SC4 by substitution of the 2-hydroxyphenyl LHS fragment with 3-cyclohexen-4-yl-1-carboxylic acid, and 2-methylbenzoic acid RHS fragment with 1-hydroxy-N,N-dimethylcyclohexan-4-yl-1-carboxamide. Our initial screen involved measuring the activity of recombinant human GST-AMPK complexes expressed in HEK293T/17 cells and immobilised on glutathione-Sepharose (Supplementary Figure S1). Enzyme activity was measured by radiolabelling the synthetic SAMS peptide substrate in the absence or presence of 1 µM compound. Consistent with our previous characterisation, SC4 activated α1β1γ1, α2β1γ1 and α2β2γ1 >2.3-fold, and weakly activated α1β2γ1 1.3-fold (Figure 1A). […] The γ isoform had little influence on AMPK activation by MSG011 as most γ2 and γ3 complexes were activated >2.2-fold at 1 µM, with α1β2γ2 being the only exception (1.6-fold activation). […] Accordingly, MSG010, MSG011 and MSG012 can be classified as pan AMPK activators.
(§2) Adherent HEK293T/17 cells at ∼50% confluency were triply transfected with full-length AMPK α1 or α2 (NH2-terminal GST fusion, pDEST27 vector), β1 or β2 (COOH-terminal FLAG fusion, pcDNA3.1 vector), and γ1, γ2 or γ3 (NH2-terminal HA fusion, pMT2 vector) in the presence of FuGENE HD transfection reagent (Promega) as per the manufacturers protocol. Cells were harvested 48 hours post-transfection by first gently washing in ice cold phosphate buffered saline (PBS; Sigma–Aldrich), then scraping in ice cold lysis buffer (50 mM TRIS pH 7.5, 150 mM NaCl, 10% (v/v) glycerol, 50 mM NaF, 5 mM sodium pyrophosphate, 1% (v/v) Triton X-100, cOmplete protease inhibitor cocktail). Lysates were clarified by centrifugation (16 000g, 3 min, 4°C), flash frozen in liquid N2 and stored at −80°C until analysis. For radioactive kinase assays, AMPK was immobilised on glutathione Sepharose 4B resin (GE Healthcare) by incubation with lysates for 1.5 h at 4°C. Following centrifugation (1000g, 3 min, 4°C), the resin was washed twice in purification buffer (50 mM HEPES pH 7.4, 150 mM NaCl, 10% (v/v) glycerol, 0.02% (v/v) Tween-20), once in 50 mM HEPES pH 7.4 with 0.02% (v/v) Tween-20, then resuspended to a 50% slurry with 50 mM HEPES pH 7.4 and 10 µl added to the activity assays. For in solution kinase assays, α1β1γ1 AMPK was eluted from glutathione-Sepharose by incubating with purification buffer supplemented with 40 mM reduced glutathione (Sigma–Aldrich).
(§3) AMPK activity was determined by phosphorylation of the SAMS peptide (Purar Chemicals, sequence: NH2-HMRSAMSGLHLVKRR-COOH) in a 25 µl reaction volume containing 100 µM SAMS peptide, 5 mM MgCl2, 200 µM ATP, [γ-^32P]-ATP (PerkinElmer) and assay buffer (50 mM HEPES pH 7.4, 1 mM DTT and 0.02% (v/v) Tween-20) and purified AMPK. Phosphotransferase activity was conducted at 30°C for 10 min and reactions were quenched by spotting 15 µl onto phosphocellulose ion-exchange chromatography paper (made in-house), followed by repeated washes in 1% H3PO4 (Merck Millipore). Ultima Gold liquid scintillation fluid (5 ml; PerkinElmer) was added to vials containing dried phosphocellulose papers, and the level of ^32P-transfer to the SAMS peptide was determined using a Tri-Carb 2900TR liquid scintillation counter (PerkinElmer).

human GST-AMPK α2β1γ1 = target: T2, human GST-AMPK α2β1γ1 (Homo sapiens, UniProt P54646+Q9Y478)
T2 construct: triply transfected with full-length AMPK α1 or α2 (NH2-terminal GST fusion, pDEST27 vector); full-length AMPK α1 or α2 (NH2-terminal GST fusion, pDEST27 vector), β1 or β2 (COOH-terminal FLAG fusion, pcDNA3.1 vector); FLAG (C); made in house; host or cells: HEK293T/17 cells, transient triple transfection
T2 sequence (P54646 whole entry, the tested form may be a part): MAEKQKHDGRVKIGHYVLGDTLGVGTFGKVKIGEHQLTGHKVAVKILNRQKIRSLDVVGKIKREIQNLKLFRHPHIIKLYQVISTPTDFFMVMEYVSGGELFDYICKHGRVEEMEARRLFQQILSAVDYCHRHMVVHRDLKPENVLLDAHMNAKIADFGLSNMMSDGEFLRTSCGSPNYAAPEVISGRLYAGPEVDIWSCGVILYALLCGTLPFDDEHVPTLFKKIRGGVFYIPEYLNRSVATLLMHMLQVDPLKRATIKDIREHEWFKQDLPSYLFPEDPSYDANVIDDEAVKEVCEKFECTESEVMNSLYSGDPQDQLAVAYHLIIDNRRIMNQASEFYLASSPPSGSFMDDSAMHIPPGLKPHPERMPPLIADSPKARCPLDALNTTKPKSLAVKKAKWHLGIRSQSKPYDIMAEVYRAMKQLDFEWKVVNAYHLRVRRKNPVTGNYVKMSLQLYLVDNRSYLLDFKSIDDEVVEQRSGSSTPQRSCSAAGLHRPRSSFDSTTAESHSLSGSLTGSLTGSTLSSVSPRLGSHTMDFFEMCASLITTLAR
T2 sequence (Q9Y478 whole entry, the tested form may be a part): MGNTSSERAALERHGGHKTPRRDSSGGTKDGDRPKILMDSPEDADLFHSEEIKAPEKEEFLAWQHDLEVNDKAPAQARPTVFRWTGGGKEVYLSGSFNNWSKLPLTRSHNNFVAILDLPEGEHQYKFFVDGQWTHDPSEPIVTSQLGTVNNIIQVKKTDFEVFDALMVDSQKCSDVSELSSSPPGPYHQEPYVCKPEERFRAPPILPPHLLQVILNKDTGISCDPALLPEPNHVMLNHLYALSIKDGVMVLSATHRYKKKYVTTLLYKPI
T2 sequence (P54619 whole entry partner, the tested form may be a part): as the sequence (P54619 whole entry partner, the tested form may be a part) above
Text: as §1, §2, §3

human GST-AMPK α2β2γ1 = target: T3, human GST-AMPK α2β2γ1 (Homo sapiens, UniProt O43741+P54646)
T3 construct: triply transfected with full-length AMPK α1 or α2 (NH2-terminal GST fusion, pDEST27 vector); full-length AMPK α1 or α2 (NH2-terminal GST fusion, pDEST27 vector), β1 or β2 (COOH-terminal FLAG fusion, pcDNA3.1 vector); FLAG (C); made in house; host or cells: HEK293T/17 cells, transient triple transfection
T3 sequence (P54646 whole entry, the tested form may be a part): as the sequence (P54646 whole entry, the tested form may be a part) above
T3 sequence (O43741 whole entry, the tested form may be a part): as the sequence (O43741 whole entry, the tested form may be a part) above
T3 sequence (P54619 whole entry partner, the tested form may be a part): as the sequence (P54619 whole entry partner, the tested form may be a part) above
Text: as §1, §2, §3

Measured: fold AMPK activation relative to vehicle

CC(=O)NC1CC=C(c2ccc(-c3nc4nc(Oc5ccc(C)c(C(=O)O)c5)[nH]c4cc3Cl)cc2)CC1 (stereo not drawn) [MSG011, 5-((5-(4′-Acetamido-2′,3′,4′,5′-tetrahydro-[1,1′-biphenyl]-4-yl)-6-chloro-1H-imidazo[4,5-b]pyridin-2-yl)oxy)-2-methylbenzoic acid]
> 2.2 fold: all assays above
